For series [1], the system named is Key Broadleaf Weed and Crop Species. As to the kind of experiment: Post-Emergent Test II (Table 5). The following applies: post-emergence, 336 h; for pest or weed control at 70 g/ha: application rate 70 (kg ai/ha; footnote: g ai/ha); for pest or weed control at 140 g/ha: application rate 140 (kg ai/ha; footnote: g ai/ha). In kind it is in vivo. The procedure, abridged: (§1)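 Growth stage at treatment: first or second true leaf. Application: compound in acetone/DMSO diluted into an adjuvant-containing aqueous mix, sprayed at 187 L/ha at several rates. Assessment: visual 0-100% injury at 14 days against untreated plants.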

Series [2] has as its system Key Grass and Sedge Weeds as well as Grass Crops. As to the kind of experiment: Post-Emergent Test II (Table 6). Conditions: post-emergence, 336 h, 14 days after application; for pest or weed control at 70 g/ha: 70 g ai/ha; for pest or weed control at 140 g/ha: 140 g ai/ha. In kind it is in vivo. The procedure, abridged: as §1
Setting [3] is: Euphorbia heterophylla, EPHHL: wild poinsettia (Euphorbia heterophylla), read-out: Visual Growth Reduction (%) 14 Days After Application EPHHL.
The mark [4] stands for this setting: Viola tricolor, VIOTR: wild pansy (Viola tricolor), read-out: Visual Growth Reduction (%) 14 Days After Application VIOTR.
The mark [5] stands for this setting: CYPSS, read-out: Visual Growth Reduction (%) 14 Days After Application CYPSS.
[6] abbreviates: DIGSA: crabgrass (Digitaria sanguinalis), read-out: Visual Growth Reduction (%) 14 Days After Application DIGSA.
The mark [7] stands for this setting: ECHSS, read-out: Visual Growth Reduction (%) 14 Days After Application ECHSS.
Where [8] appears, read: ORYSS (crop), read-out: Visual Growth Reduction (%) 14 Days After Application ORYSS.
[9] abbreviates: SETFA: giant foxtail (Setaria faberi), read-out: Visual Growth Reduction (%) 14 Days After Application SETFA.
Where [10] appears, read: SORVU: grain sorghum (Sorghum vulgare), read-out: Visual Growth Reduction (%) 14 Days After Application SORVU.
The mark [11] stands for this setting: TRZSS (crop), read-out: Visual Growth Reduction (%) 14 Days After Application TRZSS.
[12] abbreviates: ZEAMX: maize, corn (Zea mays), read-out: Visual Growth Reduction (%) 14 Days After Application ZEAMX.

Where two headings read alike, the source gives them in different places.

From patent publication US10765114B2, “4-amino-6-(pyridyl and 2-substitutedphenyl)-picolinates and 6-amino-2-(pyridyl and 2-substitutedphenyl)-pyrimidine-4-carboxylates and their use as herbicides” (Dow AgroSciences LLC, priority 2013, dated 2020) come the findings set out here.

In the case of `COC(=O)c1nc(-c2ccc(C(F)(F)F)nc2)nc(N)c1Cl` [Compound 82, methyl 6-amino-5-chloro-2-(6-(trifluoromethyl)pyridin-3-yl)pyrimidine-4-carboxylate], the melting point lay within 179 to 181 °C. Also, in series [1] (setting [3]), the pest or weed control at 70 g/ha is 0 to 29% and the pest or weed control at 140 g/ha is 0 to 29%. Moreover, in series [1] (setting [4]), the pest or weed control at 70 g/ha was 0 to 29% and the pest or weed control at 140 g/ha was in the range of 0 to 29%. Besides, in series [2] (setting [5]), the pest or weed control at 70 g/ha is 0 to 29% and the pest or weed control at 140 g/ha is 0 to 29%. In series [2] (setting [6]), the pest or weed control at 70 g/ha lay within 0 to 29% and the pest or weed control at 140 g/ha was in the range of 0 to 29%. Besides, in series [2] (setting [7]), the pest or weed control at 70 g/ha was in the range of 0 to 29% and the pest or weed control at 140 g/ha was in the range of 0 to 29%. For the same molecule, in series [2] (setting [8]), the pest or weed control at 70 g/ha was in the range of 0 to 29% and the pest or weed control at 140 g/ha was 0 to 29%. Besides, in series [2] (setting [9]), the pest or weed control at 70 g/ha fell in the range of 0 to 29% and the pest or weed control at 140 g/ha lay in the range of 0 to 29%. In series [2] (setting [10]), the pest or weed control at 70 g/ha lay in the range of 0 to 29% and the pest or weed control at 140 g/ha was 0 to 29%. Besides, in series [2] (setting [11]), the pest or weed control at 70 g/ha fell in the range of 0 to 29% and the pest or weed control at 140 g/ha lay within 0 to 29%. In series [2] (setting [12]), the pest or weed control at 70 g/ha was 0 to 29% and the pest or weed control at 140 g/ha fell in the range of 0 to 29%.

The term melting point denotes the temperature, or range, at which the solid turns liquid.
